Measured values reported in patent US20230220480A1, “IRON-SCORE AND IN VITRO METHOD FOR IDENTIFYING HIGH RISK DLBCL SUBJECTS AND THERAPEUTIC USES AND METHODS” (CENTRE NATIONAL DE LA RECHERCHE SCIENTIFIQUE (CNRS), priority 2019, published 2023).
Where two headings read alike, the source gives them in different places.

Columns and labels:
DLBCL cells [1] = assay: Autophagy, LC3B II puncta; format: cell-based, human; settings: 100 nM, 24H, P<0.0001
DLBCL cells [2] = assay: DNA double strand breaks, Phospho-H2A.X (Ser139) foci and western blot; format: cell-based, human; settings: 24 hours
Method: DSB induction was monitored by Phospho-H2A·X (Ser139) staining and nuclei were stained with DAPI. Foci were visualized by fluorescence microscopy. Original magnification X 63. Scale bar: 10 μm.
Cells were treated with iron chelators (80 μM Deferasirox), and Ironomycin (20 nM and 100 nM) during 24H. Protein levels of Phospho-H2A·X (S139) were analyzed by western blot (D)
At least 300 cells were counted for each group. Statistical difference was tested using a Fisher's exact test. * P<0.05, ** P<0.01, *** P<0.001, **** P<0.0001. NS: non-significant.

primary DLBCL cells = settings: for reduction of the median number of viable primary DLBCL cells: N=5 patients, with CD40L
Method: Primary samples of DLBCL patients were cultured with their microenvironment recombinant CD40L in presence or absence of 50 nM and 100 nM of Ironomycin. Percentage of malignant DLBCL cells for each individual patients were analyzed by flow cytometry and expressed in % of control (A). […] The effect of Ironomycin alone or in combination with Doxorubicin on normal CD3+ cells was assessed by flow cytometry (C).
Cells are obtained from lymph nodes or blood of 5 patients with DLBCL. Cells from blood are obtained by density gradient separation and cells from lymph node are obtained with a tissues dissociator and qualified by Flow cytometry.
Cells are cultured in Gibco® Iscove's MDM (Glutamax) medium (#31980-022) with 20% FBS with antibiotitcs-antimicotics (Gibco Penicillin-streptomycin-amphotericin B 100X, #15240-096) at a density of 0.5×10^6 Cell/mL with 50 ng/mL of histidine-tagged CD40L (R&D System, 2706-CL) and 5 μg/mL of anti-histidine antibody R&D System, MAB050), Gibco® pyruvate 100X, #1136-039. Cells are seeded 24H after thawing and treated with various compounds during 72H.
Total cells were counted with trypan bleu and stained with the panel CD45 V500 (BD, #560777), Kappa FITC (Dako, F0434), CD19 PE-Cy7 (BD, #341113), Lambda PE (Dako, R0437), CD3 APC-H7 (BD, #641415), CD10 APC (BD, #332777) and CD20 V450 (BD, #655872) and analyzed by flow cytometry (Canto II cytometer, BD Pharmigen).Tumorous population cells were gated on CD19+, CD45+, CD20+, Kappa or lambda and non-tumorous population cells were gated on CD45+,CD19−, and T cells on CD45+, CD3+, CD19−.

U2932 = assay: Cell viability assay (CellTiter-Glo, ATP quantification); format: cell-based, human; settings: U2932, 96H; read-out: IC50
Method: (§1) FIG. 3: Iron chelators and Ironomycin inhibit DLBCL cell growth DLBCL cells were incubated with different concentrations of iron chelators or vehicle for 96H. Inhibitory concentration 50% (IC50) was calculated with concentration-response curve after treatment with Deferoxamin (A), Deferasirox, (B) and Ironomycin (C). Cell viability was examined using quantification of ATP assay. Data are expressed as mean percentage+/−SEM of at least three independent experiments performed in sixplicate.
(§2) The 16 DLBCL cell lines (U2932, OCI-LY-3, NU-DHL-1, OCI-LY-19, DB, SUDHL4, OCILY1, SUDHL5, DOHH2, SUDHL10, HT, RI-1, SU-DHL-6, NUDUL-1, WSU-DLCL-2 and OCI-LY-7) were purchased from the DSMZ (Leibniz-Institut DSMZ—Deutsche Sammlung von Mikroorganismen und Zellkulturen GmbH, Germany). They were maintained in RPMI-1640 (Gibco, Invitrogen), supplemented with 10% fetal bovine serum (PAA laboratory GmbH) for U2932, SUDHL-4, HT, DOHH2, SUDHL-10, RI-1, WSU-DLCL-2 cell lines, 20% FBS OCI-LY3, DB, SUDHL-5, NUDHL-1, SU-DHL-6, NUDUL-1 cell lines. OCI-LY1 and OCI-LY7 were cultured in IMDM (Gibco, Invitrogen), supplemented with 20% fetal bovine serum and OCI-LY19 was cultured in MEM alpha modified (Gibco, Invitrogen), supplemented with 20% fetal bovine serum. Cultures were maintained at 37° C. in a humidified atmosphere with 5% CO2.
(§3) DLBCL-derived cell lines were cultured for 4 days in 96-well flat-bottom microtiter plates in RPMI 1640 medium, 10% or 20% FCS (control medium) in the presence of various compounds. The number of viable cells in culture was determined using the CellTiter-Glo Luminescent Cell Viability Assay from Promega, Madison, Wis., USA using a Centro LB 960 luminometer (Berthold Technologies, Bad Wildbad, Germany).
(§4) This test is based on quantitation of the intracellular ATP present, which signals the presence of metabolically active cells. Data are expressed as the mean percentage of six replicates, normalized to the untreated control.

SUDHL-5 = assay: as above; format: cell-based, human; settings: SUDHL5, 96H; read-out: IC50
Method: as §1, §2, §3, §4

DB = assay: as above; format: cell-based, human; settings: 96H, read-out: IC50
Method: as §1, §2, §3, §4

OCI-LY3 = assay: as above; format: cell-based, human; settings: OCI-LY3, 96H; read-out: IC50
Method: as §1, §2, §3, §4

OCI-LY1 = assay: as above; format: cell-based, human; settings: OCI-LY1 (GCB), 96H
Text: as §2, §3, §4
(§5) We extending the analyses to a large panel of 16 DLBCL cell lines. The panel of 16 DLBCL cell lines were incubated with increasing concentrations of Ironomycin or vehicle for 96H. Table 7 hereunder presents the inhibitory concentration 50% (IC50) of Ironomycin for the 16 DLBCL cell-lines.

WSU-DLCL-2 = assay: as above; format: cell-based, human; settings: WSU-DLCL-2 (GCB), 96H
Text: as §2, §3, §4, §5

RI-1 = assay: as above; format: cell-based, human; settings: RI-1 (ABC), 96H
Text: as §2, §3, §4, §5

OCI-LY7 = assay: as above; format: cell-based, human; settings: OCI-LY7 (GCB), 96H
Text: as §2, §3, §4, §5

SU-DHL-6 = assay: as above; format: cell-based, human; settings: SU-DHL-6 (GCB), 96H
Text: as §2, §3, §4, §5

DOHH-2 = assay: as above; format: cell-based, human; settings: DOHH-2 (GCB), 96H
Text: as §2, §3, §4, §5

SU-DHL-4 = assay: as above; format: cell-based, human; settings: SU-DHL-4 (GCB), 96H
Text: as §2, §3, §4, §5

SU-DHL-10 = assay: as above; format: cell-based, human; settings: SU-DHL-10 (GCB), 96H
Text: as §2, §3, §4, §5

HT = assay: as above; format: cell-based, human; settings: HT (GCB), 96H
Text: as §2, §3, §4, §5

NU-DHL-1 = assay: as above; format: cell-based, human; settings: NU-DHL-1 (GCB), 96H
Text: as §2, §3, §4, §5

OCI-LY19 = assay: as above; format: cell-based, human; settings: OCI-LY19 (GCB), 96H
Text: as §2, §3, §4, §5

NU-DUL-1 = assay: as above; format: cell-based, human; settings: NU-DUL-1 (ABC), 96H
Text: as §2, §3, §4, §5

[3] = system: OCI-LY3 and DB DLBCL cells; assay: ROS production, CM-H2DCFDA staining; format: cell-based, human
16 DLBCL cell lines = assay: Cell viability assay, panel of 16 DLBCL cell lines; format: cell-based, human; settings: 96H, read-out: IC50 range over all DLBCL cell lines
Text: as §2, with “Cultures were maintained at 37° C. in a humidified atmosphere with 5% CO2.” left out
as §3
This test is based on quantitation of the intracellular ATP present, which signals the presence of metabolically active cells. Data are expressed as the mean percentage of six replicates, normalized to the untreated control. […]

`C#CCN[C@@H]1C=C[C@]2(O[C@H]([C@@H](CC)C(=O)[C@@H](C)[C@@H](O)[C@H](C)[C@@H]3O[C@@H]([C@@H](CC)C(=O)O)CC[C@@H]3C)[C@@H](C)C[C@H]2C)O[C@@]12CC[C@@](C)([C@H]1CC[C@](O)(CC)[C@H](C)O1)O2` [Ironomycin] was tested, and the “LC3B II puncta (autophagy)” value (DLBCL cells [1]) was “clear increase in LC3B II puncta”, the “DNA double strand breaks (γH2AX foci, H2AX phosphorylation)” value (DLBCL cells [2]) was “induced DNA double strand breaks” and the “reduction of the median number of viable primary DLBCL cells” value (primary DLBCL cells; 50 nM) was 63.1%. For the same compound, the “reduction of the median number of viable primary DLBCL cells” value (primary DLBCL cells; 100 nM) was 67.1%, the “toxicity in DLBCL cells compared to normal cells from the microenvironment” value (primary DLBCL cells; primary samples, 50 nM and 100 nM) was “higher toxicity” and the IC50 (U2932) was 30.4 nM. It also gave an IC50 (SUDHL-5) of 28.9 nM, an IC50 (DB) of 17.2 nM and an IC50 (OCI-LY3) of 16.8 nM. It also gave an IC50 (OCI-LY1) of 20.3 nM, an IC50 (WSU-DLCL-2) of 30.7 nM and an IC50 (RI-1) of 30.2 nM. It also gave an IC50 (OCI-LY7) of 51.6 nM, an IC50 (SU-DHL-6) of 32.8 nM and an IC50 (DOHH-2) of 91.5 nM. For the same compound, the IC50 (SU-DHL-4) was 7.2 nM, the IC50 (SU-DHL-10) was 36.5 nM and the IC50 (HT) was 24.1 nM. It also gave an IC50 (NU-DHL-1) of 50.5 nM, an IC50 (OCI-LY19) of 46.9 nM and an IC50 (NU-DUL-1) of 13.7 nM. The “inhibition of induced ROS production by ferrostatin and GSH” value [3] was “partially inhibited by ferrostin but not by gluthation (GSH)”, the ROS production ([3]; CM-H2DCFDA staining) was “induces ROS production” and the IC50 (16 DLBCL cell lines) was 7.2 to 91.5 nM.
